The numbers were not newly measured in patent US20210393650A1, “Designing Treatments for Chemotherapy-Induced and Age-Related Menopausal Symptoms Using Combinations of Natural Products and Prescription Medications” (Tess Ventures, Inc., priority 2018, published 2021), which cites them from elsewhere.

In data set [1] the test system is postmenopausal women. Particulars: human, in vivo.
Data set [2] has as its system humans. Particulars: for effect on anxiety: humans, low to moderate doses.
The test system of data set [3] is CB1 receptor. Particulars: centrally-mediated, through the CB1 receptor.
Data set [4] deals with ovariectomized rat.

Each structure is given as a SMILES string.

In the case of `OCCOc1ccc(/C(=C(/CCCl)c2ccccc2)c2ccccc2)cc1` [ospemifene, Z-2-[4-(4-chloro-1,2-diphenyl-but-1-enyl)-phenoxy]ethanol], the “treatment of VVA symptoms versus local estrogen” value in data set [1] was “equivalent to or better than local estrogen”.
In the case of `C=C(C)[C@@H]1CCC(C)=C[C@H]1c1c(O)cc(CCCCC)cc1O` [CBD, 2-[(1R,6R)-3-methyl-6-prop-1-en-2-ylcyclohex-2-en-1-yl]-5-pentyl-benzene-1,3-diol], in data set [2], the effect on anxiety entry is given as “anxiolytic effects”. In data set [2] (medium to high doses), the effect on insomnia entry is on record as “sedative effect”.
Take `CCCCCc1cc(O)c2c(c1)OC(C)(C)C1CCC(C)=CC21` (stereo not shown) [Δ^9-THC, 6,6,9-trimethyl-3-pentyl-6a,7,8,10a-tetrahydrobenzo[c]chromen-1-ol]: the “effect on body temperature” value in data set [3] was “hypothermic effect”. The effect on anxiety entry in data set [2] is on record as “anxiolytic effects”. In addition, in data set [2] (insomnia), the “effect on sleep quality” value is recorded as “enhance short-term sleep quality”.
With `COc1cc(/C=C/C(=O)CC(=O)/C=C/c2ccc(O)c(OC)c2)ccc1O` [curcumin], the tail skin temperature entry in data set [4] is recorded as “significant suppression”.
